Test results reported in patent US20090155241A1, “Prophylactic/therapeutic agent for cancer” (JAPANESE FOUNDATION FOR CANCER RESEARCH, priority 2005, published 2009).

Assays:
[1] = tested on: SF268/ACS5 and SF268/mock cells; assay: Cell viability after anticancer drug treatment, SF268/mock and SF268/ACS5; type: cell-based, human; details: 48 hours; etoposide 1, 3 or 10 µg/ml, 5-fluorouracil 30, 100 or 300 µg/ml; FIG. 6A
Experimental: Changes of anticancer drug sensitivity in cancer cells by expression of ACS5 were examined. After 1, 3 or 10 µg/ml of etoposide or 30, 100 or 300 µg/ml of 5-fluorouracil was added to SF268/ACS5 established in EXAMPLE 4(2), which are cells capable of stably and highly expressing ACS5, and SF268/mock cells for control, incubation was performed in RPMI-1640 medium for 48 hours. After adding 20 μl of CellTiter 96AQueous One Solution Cell Proliferation Assay Kit (manufactured by Promega) and reacting for an hour, the cell viability was determined by measuring absorbance at 490 nm and expressed by % based on the value when no etoposide was added or no 5-fluorouracil was added (FIG. 6A).

SF268/ACS5 cells [2] = assay: Cell growth inhibition in ACS5-expressing SF268 cells; type: cell-based, human; details: FIG. 4C
Excerpt: To examine if the p53-mutated cancer cell-selective apoptosis by Triacsin c was induced by ACS activity inhibition, cells stably expressing Triacsin c-resistant ACS isozyme ACS5 were established as follows. The retroviral vector pHa-ACS5—FLAG-IRES-DHFR constructed in EXAMPLE 4(1) and empty vector pHa-IRES-DHFR were introduced into mouse fibroblast PA317 using mammalian transfection kit (Stratagene) to give viral stock. The resulting viral stock was further infected into human glioma SF268 cells and selected with 100 ng/ml of methotrexate as a selective agent to give the stably expressing strain SF268/ACS5 and SF268/mock for control. The cell extract from each cell was analyzed by western blot using anti-FLAG-M2 antibody (Sigma) (and anti-tubulin antibody (Sigma) for control).
(§1) In addition, the caspase activation as an index of apoptosis was examined.

[3] = tested on: p53-mutated cancer cells (NCI-H23, DMS114, HCT-15, KM-12, SF268, U251); assay: Cell growth inhibition, CellTiter 96 AQueous One, p53-mutated cancer cells; type: cell-based, human; details: 4 or 8 μM, 48 hours, RPMI-1640; FIG. 3A
Experimental: (§2) NCI-H23, DMS114, HCT-15, KM-12, SF268 and U251 cells, which are p53-mutated cancer cells, were incubated in RPMI-1640 medium containing 4 or 8 μM Triacsin c for 48 hours. On the other hand, human normal cell lines TIG108, TIG109, ASF4-1, CCD33Co and TIG114 cells were incubated in MEM containing 4 or 8 μM Triacsin c for 48 hours. After completion of the incubation, 20 μl of CellTiter 96AQueous One Solution Cell Proliferation Assay Kit (manufactured by Promega Corp.) was added and reacted for an hour. Absorbance was then measured at 490 nm.
(§3) The results are shown by % based on absorbance in the absence of Triacsin c.

[4] = tested on: Human lung cancer NCI-H23; assay: Growth inhibitory effect in nude mice bearing p53-mutated cancer; type: in vivo, BALB/cAJcl-nu nude mice
Experimental: In order to examine the p53-mutated cancer growth inhibitory effect by apoptosis induction via Triacsin c-induced ACS activity inhibition in vivo, a test for administering p53-mutated cancer-bearing nude mice was performed. Human lung cancer NCI-H23 was used as the p53-mutated cancer cell line and implanted subcutaneously into BALB/cAJcl-nu nude mice (9 weeks old). On day 0 when the tumor volume reached 50-150 mm^3, 40 μl (30 mg/kg/day) of Triacsin c was administered by intratumoral injection (n=5). Triacsin c was administered for 3 consecutive days on days 0, 1 and 2. For control group, 40 μl of saline was administered by the same dosing schedule (n=5). For evaluation of tumor volume, the length (L) and width (W) of the tumor were measured, and the tumor volume (TV) was calculated as TV=L×W×W/2. Relative tumor volume was determined as the value when a mean value of the tumor volume on day 0 in control group was made 1. Tumor growth was measured for 21 days after drug administration. Statistical significance was determined with a Student t test.

SF268/ACS5 cells [5] = assay: Caspase activation in ACS5-expressing SF268 cells; type: cell-based, human; details: with expression of ACS5; FIG. 4D
Experimental: (§4) In order to examine if the cell growth inhibitory effect by Triacsin c was induced by apoptosis, the caspase activation was measured as an index of the apoptosis induction using acetyl-Asp-Glu-Val-Asp-(4-methylcoumaryl-7-amide) as a substrate.
as §1

[6] = tested on: human normal cell lines TIG108, TIG109, ASF4-1, CCD33Co and TIG114; assay: Cell growth inhibition, CellTiter 96 AQueous One, human normal cell lines; type: cell-based; details: 4 or 8 μM, 48 hours, MEM; FIG. 3A
Experimental: as §2, §3

ACS = assay: Intracellular ACS activity in cell extract ([14C]-palmitic acid); type: cell-based, human; details: 4 μM, 24 hours, FIG. 4B
Experimental: The ACS activity was assayed by the method of Banis, et al. (Biochem. Biophys. Acta, 348, 210-220, 1974). To the cell extract (100 μl) obtained by homogenization, 1.2 μmol magnesium chloride, 5 μmol ATP, 3 μmol potassium fluoride, 0.1 μmol coenzyme A, 3 μmol 2-mercaptoethanol, 0.03 μmol palmitic acid and 0.1 μCi [^14C]-palmitic acid (150 μl) were added and the mixture was reacted at 37° C. for 5 minutes. After the reaction was terminated by adding 2.25 ml of isopropanol-heptane-1M sulfuric acid (40:10:1), 1.5 ml of heptane and 1 ml of water were added and the upper layer was removed. The lower layer containing [^14C]-palmitoyl CoA produced after the reaction was washed twice with 2 ml of heptane-8 mg of palmitic acid, and the ^14C level was measured using a liquid scintillation counter.
The ACS activities of SF268/mock cells and SF268/ACS5 cells were assayed by the method described in EXAMPLE 4(3).

SF268 cells = assay: Cell growth inhibition in SF268 cells; type: cell-based, human; details: about 4 μM (1 to 4 μM), treated for 48 hours; FIG. 4C
Experimental: as §2, §1

[7] = tested on: fatty acid metabolizing enzyme ACS; details: Biochem. Biophys. Acta, 921, 595-598, 1987; cited from earlier work
p53-mutated cancer cells = assay: Caspase activation as index of apoptosis induction (Ac-DEVD-MCA substrate); type: cell-based, human; details: 8 μM, 30 hours, RPMI medium; FIG. 3B
Experimental: as §4

With O=c1[nH]cc(F)c(=O)[nH]1 [5-fluorouracil] the “cell viability in SF268/ACS5 as compared to SF268/mock” value [1] was “significantly high cell viability” and the “growth inhibitory effect (cell viability)” value [1] was “growth inhibitory effect was produced concentration-dependently”.

With CCCC=CCC=CC=CC=NN=NO [Triacsin c, 1-Hydroxy-3-undeca-2,4,7-triene-1-ylidenetriaz-1-ene] the “Triacsin c-induced cell growth inhibitory effect” value (SF268/ACS5 cells [2]) was “almost completely cancelled”, the “cell growth inhibitory effect” value [3] was “potent cell growth inhibitory effect” and the “tumor volume versus control group” value ([4]; 30 mg/kg/day intratumoral injection, days 0, 1 and 2, measured for 21 days, p<0.05, FIG. 5) was “significant tumor regression effect”. The weight loss ([4]; cancer-bearing nude mice, 30 mg/kg/day intratumoral, 3 consecutive days) was “any weight loss was not observed”, the caspase activation (SF268/ACS5 cells [5]) was “strongly counteracted” and the “cell growth inhibitory effect” value [6] was “no cell growth inhibitory effect was observed”. The “intracellular ACS activity” value (ACS; SF268/ACS5 cells (ACS5-overexpressed)) was “any significant reduction of the ACS activity was not observed”, the “intracellular ACS activity” value (ACS; SF268/mock cells) was “markedly reduced” and the cell growth (SF268 cells) was “strongly inhibited the growth”. The “inhibition activity against ACS” value [7] was “specific inhibition activity” and the caspase activation (p53-mutated cancer cells) was “strong activation of caspase”.

For COc1cc([C@@H]2c3cc4c(cc3[C@@H](O[C@@H]3O[C@@H]5CO[C@@H](C)O[C@H]5[C@H](O)[C@H]3O)[C@H]3COC(=O)[C@H]23)OCO4)cc(OC)c1O [etoposide], the “cell viability in SF268/ACS5 as compared to SF268/mock” value [1] was “significantly high cell viability” and the “growth inhibitory effect (cell viability)” value [1] was “growth inhibitory effect was produced concentration-dependently”.
